Assay results from patent US20050250801A1, “Method of treating cancer with azaspirane compositions” (priority 2003, published 2005).
Where two headings read alike, the source gives them in different places.

What was measured:
Type in all cases: cell-based
[1] = test system: HCT-116; test: NCI in vitro SRB assay, Colon Cancer; settings: for CC50 / GI50: Homo sapiens
Procedure: (§1) An in vitro assay which tested the ability of N,N,-diethyl-8,8-dipropyl-2-azaspiro[4,5]decane-2-propanamine dimaleate (Compound 1) to inhibit the growth of known cancer cell lines was performed by the National Cancer Institute in accordance with standard procedures. See: Lin, Z. X., Hoult, J. R., and Raman, A. Sulphorhodamine B assay for measuring proliferation of a pigmented melanocyte cell line and its application to the evaluation of crude drugs used in the treatment of vitiligo. J Ethnopharmacol. 66: 141-150, 1999. Briefly, selected tumor cell lines were cultured in media containing five different concentrations of Compound 1. After 48 hours of continuous exposure, a sulforhodamine B (SRB) assay was used to estimate cell viability or growth via optical measurements.
(§2) From the measurements, the following values were determined: 1) the concentration of Compound 1 at which a tumor cell growth inhibition of 50% (relative to control) occurs (GI50), 2) the concentration of Compound 1 at which no growth occurs (total growth inhibition, TGI), and 3) the concentration of Compound 1 at which the […] (LC 50). […] FIG. 6 illustrates, graphically, tumor cell growth as a function of Compound 1 concentration of the scanned tumor cell lines.

[2] = test system: 786-0; test: NCI in vitro SRB assay, Renal Cancer; settings: for CC50 / GI50: Homo sapiens
Procedure: as §1, §2

[3] = test system: A498; test: NCI in vitro SRB assay, Renal Cancer; settings: for GI50: Homo sapiens
Procedure: as §1, §2

[4] = test system: CAKI-1; test: NCI in vitro SRB assay, Renal Cancer; settings: for CC50 / GI50: Homo sapiens
Procedure: as §1, §2

[5] = test system: RXF 393; test: NCI in vitro SRB assay, Renal Cancer; settings: for CC50 / GI50: Homo sapiens
Procedure: as §1, §2

[6] = test system: SN12C; test: NCI in vitro SRB assay, Renal Cancer; settings: for GI50 / CC50: Homo sapiens
Procedure: as §1, §2

[7] = test system: TK-10; test: NCI in vitro SRB assay, Renal Cancer; settings: for CC50 / GI50: Homo sapiens
Procedure: as §1, §2

[8] = test system: UO-31; test: NCI in vitro SRB assay, Renal Cancer; settings: for CC50 / GI50: Homo sapiens
Procedure: as §1, §2

[9] = HCT-116, Log10 conc -4.0 Moles/L
[10] = HCT-116, Log10 conc -5.0 Moles/L
[11] = HCT-116, Log10 conc -6.0 Moles/L
[12] = HCT-116, Log10 conc -7.0 Moles/L
[13] = HCT-116, Log10 conc -8.0 Moles/L
[14] = read-out: Log10 GI50 (converted)
[15] = CAKI-1, Log10 conc -4.0 Moles/L
[16] = CAKI-1, Log10 conc -5.0 Moles/L
[17] = CAKI-1, Log10 conc -6.0 Moles/L
[18] = CAKI-1, Log10 conc -7.0 Moles/L
[19] = CAKI-1, Log10 conc -8.0 Moles/L
[20] = RXF 393, Log10 conc -4.0 Moles/L
[21] = RXF 393, Log10 conc -5.0 Moles/L
[22] = RXF 393, Log10 conc -6.0 Moles/L
[23] = RXF 393, Log10 conc -7.0 Moles/L
[24] = RXF 393, Log10 conc -8.0 Moles/L

## CCCC1(CCC)CCC2(CCN(CCCN(CC)CC)C2)CC1.O=C(O)/C=C\C(=O)O.O=C(O)/C=C\C(=O)O [Compound 1, N,N,-diethyl-8,8-dipropyl-2-azaspiro[4,5]decane-2-propanamine dimaleate]
[1]; HCT-116
  Log10 TGI: −5.63
  TGI: 2.37 µM
[1]; [9]
  Mean Optical Densities: 0.061
  Percent Growth: −63%
[1]; [10]
  Mean Optical Densities: 0.051
  Percent Growth: −69%
[1]; [11]
  Mean Optical Densities: 0.407
  Percent Growth: 41%
[1]; [12]
  Mean Optical Densities: 0.675
  Percent Growth: 87%
[1]; [13]
  Mean Optical Densities: 0.744
  Percent Growth: 99%
[1]; HCT-116, read-out: LC50
  CC50: 6.73 µM
[1]; HCT-116, read-out: Log10 LC50 (converted)
  CC50: 6.76 µM
[1]; HCT-116, read-out: GI50
  GI50: 646 nM
[1]; HCT-116, read-out: Log10 GI50 (converted)
  GI50: 646 nM
[2]; 786-0
  Log10 TGI: −5.48
  TGI: 3.33 µM
[2]; 786-0, Log10 conc -4.0 Moles/L
  Mean Optical Densities: 0.132
  Percent Growth: −64%
[2]; 786-0, Log10 conc -5.0 Moles/L
  Mean Optical Densities: 0.121
  Percent Growth: −67%
[2]; 786-0, Log10 conc -6.0 Moles/L
  Mean Optical Densities: 0.934
  Percent Growth: 73%
[2]; 786-0, Log10 conc -7.0 Moles/L
  Mean Optical Densities: 1.091
  Percent Growth: 94%
[2]; 786-0, Log10 conc -8.0 Moles/L
  Mean Optical Densities: 1.111
  Percent Growth: 96%
[2]; 786-0, read-out: LC50
  CC50: 7.57 µM
[2]; 786-0, read-out: Log10 LC50 (converted)
  CC50: 7.59 µM
[2]; 786-0, read-out: GI50
  GI50: 1470 nM
[2]; 786-0, read-out: Log10 GI50 (converted)
  GI50: 1480 nM
[3]
  Log10 TGI: −5.50
  TGI: 3.13 µM
[3]; read-out: GI50
  GI50: 1680 nM
[3]; [14]
  GI50: 1700 nM
[3]; Log10 conc -4.0 Moles/L
  Mean Optical Densities: 0.157
  Percent Growth: −85%
[3]; Log10 conc -5.0 Moles/L
  Mean Optical Densities: 0.065
  Percent Growth: −94%
[3]; Log10 conc -6.0 Moles/L
  Mean Optical Densities: 1.336
  Percent Growth: 92%
[3]; Log10 conc -7.0 Moles/L
  Mean Optical Densities: 1.327
  Percent Growth: 89%
[3]; Log10 conc -8.0 Moles/L
  Mean Optical Densities: 1.297
  Percent Growth: 79%
[4]; CAKI-1
  Log10 TGI: −5.49
  TGI: 3.27 µM
[4]; [15]
  Mean Optical Densities: 0.136
  Percent Growth: −83%
[4]; [16]
  Mean Optical Densities: 0.150
  Percent Growth: −81%
[4]; [17]
  Mean Optical Densities: 1.691
  Percent Growth: 86%
[4]; [18]
  Mean Optical Densities: 1.607
  Percent Growth: 78%
[4]; [19]
  Mean Optical Densities: 1.646
  Percent Growth: 82%
[4]; CAKI-1, read-out: LC50
  CC50: 6.51 µM
[4]; CAKI-1, read-out: Log10 LC50 (converted)
  CC50: 6.46 µM
[4]; CAKI-1, read-out: GI50
  GI50: 1650 nM
[4]; CAKI-1, read-out: Log10 GI50 (converted)
  GI50: 1660 nM
[5]; RXF 393, read-out: LC50
  CC50: 7.1 µM
[5]; RXF 393, read-out: Log10 LC50 (converted)
  CC50: 7.08 µM
[5]; RXF 393, read-out: GI50
  GI50: 1640 nM
[5]; RXF 393, read-out: Log10 GI50 (converted)
  GI50: 1620 nM
[5]; RXF 393
  Log10 TGI: −5.47
  TGI: 3.41 µM
[5]; [20]
  Mean Optical Densities: 0.083
  Percent Growth: −74%
[5]; [21]
  Mean Optical Densities: 0.086
  Percent Growth: −73%
[5]; [22]
  Mean Optical Densities: 0.943
  Percent Growth: 84%
[5]; [23]
  Mean Optical Densities: 1.028
  Percent Growth: 95%
[5]; [24]
  Mean Optical Densities: 1.017
  Percent Growth: 94%
[6]
  Log10 TGI: −5.55
  TGI: 2.82 µM
[6]; read-out: GI50
  GI50: 1290 nM
[6]; read-out: LC50
  CC50: 6.17 µM
[6]; [14]
  GI50: 1290 nM
[6]; read-out: Log10 LC50 (converted)
  CC50: 6.17 µM
[6]; Log10 conc -4.0 Moles/L
  Mean Optical Densities: 0.036
  Percent Growth: −90%
[6]; Log10 conc -5.0 Moles/L
  Mean Optical Densities: 0.069
  Percent Growth: −81%
[6]; Log10 conc -6.0 Moles/L
  Mean Optical Densities: 0.668
  Percent Growth: 66%
[6]; Log10 conc -7.0 Moles/L
  Mean Optical Densities: 0.701
  Percent Growth: 73%
[6]; Log10 conc -8.0 Moles/L
  Mean Optical Densities: 0.717
  Percent Growth: 76%
[7]; TK-10, read-out: LC50
  CC50: 5.52 µM
[7]; TK-10, read-out: Log10 LC50 (converted)
  CC50: 5.5 µM
[7]; TK-10, read-out: GI50
  GI50: 1270 nM
[7]; TK-10, read-out: Log10 GI50 (converted)
  GI50: 1260 nM
[7]; TK-10
  Log10 TGI: −5.58
  TGI: 2.65 µM
[7]; TK-10, Log10 conc -4.0 Moles/L
  Mean Optical Densities: 0.101
  Percent Growth: −89%
[7]; TK-10, Log10 conc -5.0 Moles/L
  Mean Optical Densities: 0.087
  Percent Growth: −90%
[7]; TK-10, Log10 conc -6.0 Moles/L
  Mean Optical Densities: 1.283
  Percent Growth: 66%
[7]; TK-10, Log10 conc -7.0 Moles/L
  Mean Optical Densities: 1.389
  Percent Growth: 85%
[7]; TK-10, Log10 conc -8.0 Moles/L
  Mean Optical Densities: 1.449
  Percent Growth: 96%
[8]; UO-31, read-out: LC50
  CC50: 5.03 µM
[8]; UO-31, read-out: Log10 LC50 (converted)
  CC50: 5.01 µM
[8]; UO-31, read-out: GI50
  GI50: 1200 nM
[8]; UO-31, read-out: Log10 GI50 (converted)
  GI50: 1200 nM
[8]; UO-31
  Log10 TGI: −5.61
  TGI: 2.45 µM
[8]; UO-31, Log10 conc -4.0 Moles/L
  Mean Optical Densities: 0.039
  Percent Growth: −87%
[8]; UO-31, Log10 conc -5.0 Moles/L
  Mean Optical Densities: 0.006
  Percent Growth: −98%
[8]; UO-31, Log10 conc -6.0 Moles/L
  Mean Optical Densities: 0.833
  Percent Growth: 63%
[8]; UO-31, Log10 conc -7.0 Moles/L
  Mean Optical Densities: 1.056
  Percent Growth: 89%
[8]; UO-31, Log10 conc -8.0 Moles/L
  Mean Optical Densities: 1.076
  Percent Growth: 91%
